# What was measured:
# KDM5B = assay: MALDI–TOF MS demethylation/+16 Da assay, KDM5B; type: biochemical, human; conditions: 90 min
# Excerpt: Fig. 2 Histone H2a fragments are KDM5 and KDM4 substrates. […] See Supplementary Table 6 and Supplementary Fig. 2 for assay conditions and quantification, respectively. […] 0-minute MS spectrum in black, 60/90-minute spectrum in red.
# MS-based screening assays with peptides and calf thymus histones were as reported; see Supplementary Table 6 for conditions. Time course assays were based on reported procedures. In brief, equal volumes of the enzyme and substrate solutions were combined to initiate the reaction; 10 µL of 2% (v/v) formic acid (HCOOH) in ddH2O or 100% methanol was added to 10 µL of the reaction mixture to quench reactions at different time points. Unless otherwise stated, time course assays were carried out in triplicate. In some cases, LC–MS was used instead of MALDI-TOF MS to avoid a MALDI matrix induced artefact with the hydroxylated product (Supplementary Fig. 16). […]
# Supplementary Figure 2 Histone H2a peptide fragments are substrates of KDM4s and KDM5s.
# 2 for representative corresponding MALDI–TOF MS traces. Bar graphs comparing % product format ion (+16 Da and demethylation) of H2a(1–20)R3me2a by (a) K DM5 A–D (after 90 minutes) and (b) KDM4A–E ( a ft er 60 minutes), analysed by MALDI– TOF MS. n = (a) 2, (b) 3 (independent assays). See Supplementary Table 6 for assay condit ions. See Figure S13 A 1 for a positive control.
# (also on this page, place not known: formation KDM5A–D (after MALDI–TOF conditions. Figure S13A1 KDM4A KDM4B KDM4C KDM4D KDM4E 80% product formation KDM5A KDM5B KDM5C KDM5D % product formation) […]
# (§1) [ E nz ym e] [Peptide] [2OG] [Ascorbate] [(NH4)2F e(S O4)2] [TCEP] Buffer pH7.5 Enzyme Cognate substrate (mM) (mM) (mM) (mM) (mM) (mM) [HE PE S]
# (§2) Supplementary Table 6 Summary of MS assay conditions for substrate screening. These conditions enabled efficient turnover of established substrates. Reactions were carried out at 37 °C unless otherwise st ated. […]
# KDM4E = target: T1, KDM4E (Homo sapiens, UniProt B2RXH2); assay: MALDI–TOF MS time course / specific activity, KDM4E; type: biochemical
# T1 construct: KDM4E1–337; made in house; host or cells: E. coli
# T1 sequence (B2RXH2 1-337): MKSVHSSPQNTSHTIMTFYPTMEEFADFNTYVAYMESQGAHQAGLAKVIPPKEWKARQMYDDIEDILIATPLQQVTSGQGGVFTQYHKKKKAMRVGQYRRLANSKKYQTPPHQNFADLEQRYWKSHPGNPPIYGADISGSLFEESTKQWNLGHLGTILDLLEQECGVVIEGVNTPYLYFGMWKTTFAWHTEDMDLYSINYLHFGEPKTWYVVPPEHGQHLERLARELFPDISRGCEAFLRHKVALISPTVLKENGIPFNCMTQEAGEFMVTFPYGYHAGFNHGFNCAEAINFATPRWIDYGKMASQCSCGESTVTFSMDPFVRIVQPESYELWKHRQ
# Procedure: MS-based screening assays with peptides and calf thymus histones were as reported; see Supplementary Table 6 for conditions. Time course assays were based on reported procedures. In brief, equal volumes of the enzyme and substrate solutions were combined to initiate the reaction; 10 µL of 2% (v/v) formic acid (HCOOH) in ddH2O or 100% methanol was added to 10 µL of the reaction mixture to quench reactions at different time points. Unless otherwise stated, time course assays were carried out in triplicate. In some cases, LC–MS was used instead of MALDI-TOF MS to avoid a MALDI matrix induced artefact with the hydroxylated product (Supplementary Fig. 16).
# Data collected from time course assay(s) were used to plot the % conversion vs time (min) using GraphPad Prism5 version 5.04; the resultant slopes were used to fit a line with linear regression to the first-order region of the reaction. The resultant gradient was then converted from % product formation min^−1 to amount of peptide converted (demethylation and / or hydroxylation) in µM.
# Supplementary Figure 4 Activity of KDM5C (black circles) with H2a(1–20)R3me2a is greater than that of KDM4E (white circles). (a) A MALDI–TOF MS time course graph of product formation (%) of KDM4E ( −14 Da/+16 Da) and KDM5C (−14 Da) reaction with H2a(1–20)R3me2a versus time (minutes). ~60% substrate depletion was reached after 105 minutes with KDM4E; ~95% of H2a(1–20)R3me2a was demethylated after 1 05 minut e s wit h K DM5 C. (b ) Comparison of specific activities of KDM4E with H2a(1–20)R3me2a (0.15 […]
# bars; +/- SD; n = 3 (independent assays). See Supplementary Table 6 for assay condit ions.
# (also on this page, place not known: 105 minutes KDM5C. (b) H2a(1 –20)R3me2a with conditions. specific activity (pmol·min-1·μM-1))
# (1 picture or pasted object on this page, not shown here)
# as §1, §2
substance,measurement,setting,value
"Ac - SGR [ me 2a ] GKQ GGKAR AKAKT R SSR [H2a(1–20)R3me2a, H2a(1–20)R3me2a without a biotin tag]",+16 Da (% product formation),KDM5B; replicate 1,0%
same,demethylation (% product formation),KDM5B; replicate 1,23.54%
same,+16 Da (% product formation),KDM5B; replicate 2,0%
same,demethylation (% product formation),KDM5B; replicate 2,18.654%
same,product formation (−14 Da/+16 Da),"KDM4E; 0 min, replicate 1",0%
same,product formation (−14 Da/+16 Da),"KDM4E; 0 min, replicate 2",0%
same,product formation (−14 Da/+16 Da),"KDM4E; 0 min, replicate 3",0%
same,product formation (−14 Da/+16 Da),"KDM4E; 5 min, replicate 1",3.341%
same,product formation (−14 Da/+16 Da),"KDM4E; 5 min, replicate 2",5.787%
same,product formation (−14 Da/+16 Da),"KDM4E; 5 min, replicate 3",-0.8025%
same,product formation (−14 Da/+16 Da),"KDM4E; 15 min, replicate 1",-0.9416%
same,product formation (−14 Da/+16 Da),"KDM4E; 15 min, replicate 2",5.091%
same,product formation (−14 Da/+16 Da),"KDM4E; 15 min, replicate 3",-0.7355%
same,product formation (−14 Da/+16 Da),"KDM4E; 30 min, replicate 1",22.6189%
same,product formation (−14 Da/+16 Da),"KDM4E; 30 min, replicate 2",32.3989%
same,product formation (−14 Da/+16 Da),"KDM4E; 30 min, replicate 3",20.757%
same,product formation (−14 Da/+16 Da),"KDM4E; 45 min, replicate 1",29.5376%
same,product formation (−14 Da/+16 Da),"KDM4E; 45 min, replicate 2",33.3686%
same,product formation (−14 Da/+16 Da),"KDM4E; 45 min, replicate 3",28.8806%
same,product formation (−14 Da/+16 Da),"KDM4E; 60 min, replicate 1",41.1416%
same,product formation (−14 Da/+16 Da),"KDM4E; 60 min, replicate 2",35.7562%
same,product formation (−14 Da/+16 Da),"KDM4E; 60 min, replicate 3",37.6375%
same,product formation (−14 Da/+16 Da),"KDM4E; 75 min, replicate 1",48.3844%
same,product formation (−14 Da/+16 Da),"KDM4E; 75 min, replicate 2",47.469%
same,product formation (−14 Da/+16 Da),"KDM4E; 75 min, replicate 3",46.9153%
same,product formation (−14 Da/+16 Da),"KDM4E; 90 min, replicate 1",60.0026%
same,product formation (−14 Da/+16 Da),"KDM4E; 90 min, replicate 2",49.7939%
same,product formation (−14 Da/+16 Da),"KDM4E; 90 min, replicate 3",54.7629%
same,product formation (−14 Da/+16 Da),"KDM4E; 105 min, replicate 1",62.5982%
same,product formation (−14 Da/+16 Da),"KDM4E; 105 min, replicate 2",62.265%
same,product formation (−14 Da/+16 Da),"KDM4E; 105 min, replicate 3",60.6438%
same,substrate depletion,"KDM4E; KDM4E, 105 minutes",~ 60%
same,specific activity,"KDM4E; KDM4E, mean of n = 3, SD 0.010",0.15 pmol min^−1 µM^−1
same,specific activity,"KDM4E; KDM4E, repeat 1",0.1634 pmol·min-1·μM-1
same,specific activity,"KDM4E; KDM4E, repeat 2",0.141 pmol·min-1·μM-1
same,specific activity,"KDM4E; KDM4E, repeat 3",0.1586 pmol·min-1·μM-1

# Reference: PMC11603075 (Communications Biology, 2024)
